We go through 1 molecule from patent EP4806449A1, “ANTIVIRAL FOOD PRODUCT” (Creaciones Aromáticas Industriales, S.A., priority 2023, dated 2025).

The subject of series [1] is human coronavirus 229E. The following applies: positive control, dose range 0.06-264 µg/ml.
Another series concerns MRC-5 cells. The series can be described thus: Toxicity controls without virus (MTT cell viability). Format: cell-based. The following applies: MRC-5 cells without 229E virus; 4.5h treatment; MTT after 5 days. As to the method: (§1) The MRC-5 cell line (lung-derived fibroblasts) from the American Type Culture Collection (ATCC) (CCL-171) was used. Cells were kept at 37°C and 5% CO2 in Eagle minimum essential medium (EMEM) supplemented with 10% foetal bovine serum (FBS) and antibiotics, trypsinising every 3-4 days, before reaching 90% confluence. Coronavirus 229E was obtained from the ATCC (VR-740) and amplified in MRC-5 cells, according to the ATCC protocol.
(§2) In both experiments, 5 days post-infection, differences in cell viability associated with the cytopathic effect of the virus or toxicity of the treatments were analysed by means of the MTT assay. The MTT assay is a colorimetric assay that measures the activity of enzymes that transform the MTT (methylthiazolyldiphenyl-tetrazolium bromide) molecule to formazan, purple in colour. Briefly, the medium was aspirated from the wells and 0.1 ml of 1 mg/ml MTT solution in EMEM was added to each well, and incubated at 37°C for 2 hours. Next, the MTT solution was aspirated, formazan crystals were dissolved in 0.1 ml of DMSO and absorbance was read at 570 nm (reference 660 nm). The mean absorbance values of the uninfected controls was considered to be 100% cell viability.
(§3) In order to evaluate the results, the following variables were calculated: • CC50: Half maximal cytotoxic concentration, which is the concentration of the compound of interest causing 50% toxicity. […]

Test in series [2]: as above
Type of series: cell-based. Particulars: human; MRC-5 cells without 229E virus; 4.5h treatment; MTT after 5 days. On the procedure:
as §1, §2, §3

In series [3] the test system is human coronavirus 229E. Put plainly: microbe, parasite or virus in culture. The following applies: MRC5.
Experimental: In this study, the ability of the product object of the invention to inhibit the infectivity of human coronavirus 229E was determined. To that end, different concentrations of grape extract were incubated together with a defined concentration of the virus of interest for 30 minutes. Exposure of host cells to the virus causes the virus to replicate within the cells, which produces a cytopathic effect on the cells that is quantified by means of a cell viability assay after 5 days of exposure.
The MRC-5 cell line (lung-derived fibroblasts) from the American Type Culture Collection (ATCC) (CCL-171) was used. […]
A stock solution of the test substance was prepared in dimethyl sulfoxide (DMSO) at 100 mg/ml. […] Next, 0.25 ml of each dilution were mixed with 0.25 ml of a 229E inoculum diluted in 2% FBS EMEM medium, with the inoculum at an infectious concentration of 1000 TCID50/ml and the maximum concentration of the extract at 1 mg/ml (concentration range analysed in the medium: 7.81-1000 µg/ml). […]
To that end, a stock solution of the test substance was prepared in dimethyl sulfoxide (DMSO) at 50 mg/ml. […] Next, 0.25 ml of each dilution were mixed with 0.25 ml of a 229E inoculum diluted in 2% FBS EMEM medium, with the inoculum at an infectious concentration of 1000 TCID50/ml and the maximum concentration of the extract at 1 mg/ml (concentration range analysed in the medium: 0.78125 µg/ml - 100 µg/ml). […]

As a reminder, the CC50 is the concentration giving 50% cytotoxicity. Read a low CC50 as greater toxicity to the cells. One may read the EC50 as the concentration at which the effect is half-maximal. Lower therefore signals a more potent agent.

Structures are written as SMILES. Values after ≈ are worked out from the molar mass of the structure shown. Where only a bound is given, the exact number is not on record here.

With `CCN(CC)CCCC(C)Nc1ccnc2cc(Cl)ccc12` (stereo not shown) [Chloroquine, chloroquine], in the series with human coronavirus 229E [1], the “clear antiviral effect starting from” value is not below 16.5 µg/mL. Moreover, the CC50 in the series on MRC-5 cells was more than 264 µg/mL. Also, the CC50 at 4.5 h in series [2] was more than 264 µg/mL. The molecule further had an EC50 with human coronavirus 229E [3] of 5.96 µg/mL (≈ 18.6 µM).
